Measurements taken from the NIST ThermoML archive (doi:10.1016/j.fluid.2007.12.007).
± gives the expanded uncertainty stated by the source.

Columns and labels:
[1] = 101.33 kPa, Liquid
[2] = xn = mol fraction of the nth substance listed; conditions: 101 kPa, Liquid

OCCCCO [1,4-butanediol]
[1]
Conditions	speed of sound [m/s]	viscosity [mPa·s]
293.15 K	1616.4 ± 3.4	97.26 ± 4.5
298.15 K	1605.6 ± 3.4	72.75 ± 1.9
303.15 K	1595.9 ± 3.3	56.89 ± 0.56
308.15 K	1587.3 ± 3.3	44.88 ± 0.75
313.15 K	1579.8 ± 3.3	35.81 ± 0.6
318.15 K	1570.2 ± 3.3	29.05 ± 0.5

CCC(C)O (configuration not stated) [butan-2-ol]
[1]
Conditions	speed of sound [m/s]	viscosity [mPa·s]
293.15 K	1232.6 ± 2.8	4.212 ± 0.43
298.15 K	1212.6 ± 2.7	3.034 ± 0.094
303.15 K	1194.6 ± 2.7	2.495 ± 0.076
308.15 K	1174.5 ± 2.7	2.106 ± 0.064
313.15 K	1155.9 ± 2.6	1.784 ± 0.055
318.15 K	1138.6 ± 2.6	1.524 ± 0.048

CCCCO [butan-1-ol]
[1]
Conditions	speed of sound [m/s]	viscosity [mPa·s]
293.15 K	1262.4 ± 2.8	2.936 ± 0.066
298.15 K	1242.6 ± 2.7	2.542 ± 0.058
303.15 K	1224.6 ± 2.7	2.275 ± 0.052
308.15 K	1207.6 ± 2.7	1.998 ± 0.046
313.15 K	1189.2 ± 2.7	1.744 ± 0.041
318.15 K	1170 ± 2.6	1.571 ± 0.037

CC(O)CCO (configuration not stated) [1,3-butanediol] + NC=O
[2]
Conditions	speed of sound [m/s]	viscosity [mPa·s]
293.15 K, x2 = 0.1061	1539 ± 3.3	99.92 ± 4.8
293.15 K, x2 = 0.2004	1536.3 ± 3.2	78.22 ± 2.4
293.15 K, x2 = 0.3068	1537.2 ± 3.2	59.74 ± 0.77
293.15 K, x2 = 0.4026	1538.5 ± 3.2	46.12 ± 0.76
293.15 K, x2 = 0.5033	1543.7 ± 3.2	34.62 ± 0.58
293.15 K, x2 = 0.6046	1550.4 ± 3.2	25.02 ± 0.43
293.15 K, x2 = 0.7013	1561.2 ± 3.2	17.54 ± 0.31
293.15 K, x2 = 0.8073	1577.3 ± 3.3	10.47 ± 0.2
293.15 K, x2 = 0.9058	1596.6 ± 3.3	6.546 ± 0.13
298.15 K, x2 = 0.1061	1521.7 ± 3.2	74.72 ± 2.1
298.15 K, x2 = 0.2004	1518.2 ± 3.2	57.5 ± 0.6
298.15 K, x2 = 0.3068	1518.3 ± 3.2	43.1 ± 0.72
298.15 K, x2 = 0.4026	1519.5 ± 3.2	32.2 ± 0.54
298.15 K, x2 = 0.5033	1524.6 ± 3.2	23.74 ± 0.41
298.15 K, x2 = 0.6046	1531.3 ± 3.2	17 ± 0.3
298.15 K, x2 = 0.7013	1542.5 ± 3.2	12 ± 0.22
298.15 K, x2 = 0.8073	1559.5 ± 3.2	7.526 ± 0.15
298.15 K, x2 = 0.9058	1580.2 ± 3.3	5.001 ± 0.11
303.15 K, x2 = 0.1061	1503.9 ± 3.2	53.07 ± 0.31
303.15 K, x2 = 0.2004	1499.8 ± 3.2	40.31 ± 0.67
303.15 K, x2 = 0.3068	1499.9 ± 3.2	28.9 ± 0.49
303.15 K, x2 = 0.4026	1501.1 ± 3.2	21.09 ± 0.37
303.15 K, x2 = 0.5033	1506.5 ± 3.2	15.04 ± 0.27
303.15 K, x2 = 0.6046	1513.8 ± 3.2	10.33 ± 0.19
303.15 K, x2 = 0.7013	1525.7 ± 3.2	7.023 ± 0.14
303.15 K, x2 = 0.8073	1543.8 ± 3.2	4.543 ± 0.1
303.15 K, x2 = 0.9058	1566.3 ± 3.2	3.526 ± 0.079
308.15 K, x2 = 0.1061	1488.7 ± 3.2	40.36 ± 0.68
308.15 K, x2 = 0.2004	1484.2 ± 3.2	30.96 ± 0.52
308.15 K, x2 = 0.3068	1483.6 ± 3.2	21.98 ± 0.38
308.15 K, x2 = 0.4026	1484.8 ± 3.2	15.66 ± 0.28
308.15 K, x2 = 0.5033	1490.1 ± 3.2	11.25 ± 0.21
308.15 K, x2 = 0.6046	1497.6 ± 3.2	7.455 ± 0.15
308.15 K, x2 = 0.7013	1509.9 ± 3.2	5.329 ± 0.11
308.15 K, x2 = 0.8073	1528.7 ± 3.2	3.578 ± 0.08
308.15 K, x2 = 0.9058	1552.5 ± 3.2	2.702 ± 0.061
313.15 K, x2 = 0.1061	1475.5 ± 3.2	31.06 ± 0.53
313.15 K, x2 = 0.2004	1470.2 ± 3.1	24.23 ± 0.42
313.15 K, x2 = 0.3068	1468.8 ± 3.1	17.48 ± 0.31
313.15 K, x2 = 0.4026	1469.6 ± 3.1	12.14 ± 0.22
313.15 K, x2 = 0.5033	1474.7 ± 3.1	8.414 ± 0.16
313.15 K, x2 = 0.6046	1482.1 ± 3.1	6.181 ± 0.13
313.15 K, x2 = 0.7013	1494.6 ± 3.1	4.545 ± 0.1
313.15 K, x2 = 0.8073	1513.9 ± 3.2	3.229 ± 0.072
313.15 K, x2 = 0.9058	1538.9 ± 3.2	2.626 ± 0.06
318.15 K, x2 = 0.1061	1463.3 ± 3.1	24.04 ± 0.41
318.15 K, x2 = 0.2004	1457 ± 3.1	18.62 ± 0.33
318.15 K, x2 = 0.3068	1454.8 ± 3.1	13.82 ± 0.25
318.15 K, x2 = 0.4026	1455.1 ± 3.1	9.999 ± 0.19
318.15 K, x2 = 0.5033	1459.9 ± 3.1	6.803 ± 0.14
318.15 K, x2 = 0.6046	1467.1 ± 3.1	4.697 ± 0.1
318.15 K, x2 = 0.7013	1479.7 ± 3.1	3.299 ± 0.074
318.15 K, x2 = 0.8073	1499.4 ± 3.1	2.478 ± 0.057
318.15 K, x2 = 0.9058	1525.5 ± 3.2	2.257 ± 0.052

NC=O [formamide] + CCCCO
[2]
Conditions	speed of sound [m/s]	viscosity [mPa·s]
293.15 K, x1 = 0.1093	1302.3 ± 2.8	3.225 ± 0.072
293.15 K, x1 = 0.2057	1337.7 ± 2.9	3.446 ± 0.077
293.15 K, x1 = 0.3138	1377 ± 3	3.598 ± 0.08
293.15 K, x1 = 0.4104	1412 ± 3	3.696 ± 0.082
293.15 K, x1 = 0.5115	1448.4 ± 3.1	3.754 ± 0.083
293.15 K, x1 = 0.6124	1484.4 ± 3.1	3.777 ± 0.084
293.15 K, x1 = 0.7081	1518 ± 3.2	3.77 ± 0.084
293.15 K, x1 = 0.8123	1554 ± 3.2	3.744 ± 0.083
293.15 K, x1 = 0.9086	1586.4 ± 3.3	3.708 ± 0.082
298.15 K, x1 = 0.1093	1281.2 ± 2.8	2.81 ± 0.064
298.15 K, x1 = 0.2057	1315.3 ± 2.9	3.018 ± 0.068
298.15 K, x1 = 0.3138	1353.7 ± 2.9	3.181 ± 0.071
298.15 K, x1 = 0.4104	1388.3 ± 3	3.285 ± 0.073
298.15 K, x1 = 0.5115	1424.6 ± 3	3.352 ± 0.075
298.15 K, x1 = 0.6124	1461 ± 3.1	3.386 ± 0.076
298.15 K, x1 = 0.7081	1495.5 ± 3.1	3.389 ± 0.076
298.15 K, x1 = 0.8123	1533.1 ± 3.2	3.379 ± 0.076
298.15 K, x1 = 0.9086	1567.9 ± 3.2	3.355 ± 0.075
303.15 K, x1 = 0.1093	1261.5 ± 2.8	2.506 ± 0.057
303.15 K, x1 = 0.2057	1294.8 ± 2.8	2.693 ± 0.061
303.15 K, x1 = 0.3138	1332.6 ± 2.9	2.846 ± 0.064
303.15 K, x1 = 0.4104	1367.1 ± 2.9	2.947 ± 0.066
303.15 K, x1 = 0.5115	1403.4 ± 3	3.003 ± 0.068
303.15 K, x1 = 0.6124	1440.3 ± 3	3.032 ± 0.068
303.15 K, x1 = 0.7081	1475.4 ± 3.1	3.036 ± 0.068
303.15 K, x1 = 0.8123	1515.3 ± 3.2	3.019 ± 0.068
303.15 K, x1 = 0.9086	1552.5 ± 3.2	2.996 ± 0.067
308.15 K, x1 = 0.1093	1243.5 ± 2.7	2.202 ± 0.051
308.15 K, x1 = 0.2057	1275.6 ± 2.8	2.371 ± 0.054
308.15 K, x1 = 0.3138	1312.7 ± 2.9	2.516 ± 0.057
308.15 K, x1 = 0.4104	1347 ± 2.9	2.616 ± 0.059
308.15 K, x1 = 0.5115	1383.6 ± 3	2.676 ± 0.061
308.15 K, x1 = 0.6124	1420.5 ± 3	2.702 ± 0.061
308.15 K, x1 = 0.7081	1456.5 ± 3.1	2.705 ± 0.061
308.15 K, x1 = 0.8123	1497.9 ± 3.1	2.688 ± 0.061
308.15 K, x1 = 0.9086	1537.2 ± 3.2	2.671 ± 0.06
313.15 K, x1 = 0.1093	1223.7 ± 2.7	1.92 ± 0.044
313.15 K, x1 = 0.2057	1255.5 ± 2.8	2.081 ± 0.048
313.15 K, x1 = 0.3138	1292.1 ± 2.8	2.224 ± 0.051
313.15 K, x1 = 0.4104	1326 ± 2.9	2.324 ± 0.053
313.15 K, x1 = 0.5115	1362.6 ± 2.9	2.388 ± 0.055
313.15 K, x1 = 0.6124	1399.8 ± 3	2.418 ± 0.055
313.15 K, x1 = 0.7081	1437 ± 3	2.426 ± 0.055
313.15 K, x1 = 0.8123	1479.9 ± 3.1	2.423 ± 0.055
313.15 K, x1 = 0.9086	1521.9 ± 3.2	2.413 ± 0.055
318.15 K, x1 = 0.1093	1203.3 ± 2.7	1.725 ± 0.04
318.15 K, x1 = 0.2057	1234.5 ± 2.7	1.874 ± 0.044
318.15 K, x1 = 0.3138	1270.8 ± 2.8	2.008 ± 0.046
318.15 K, x1 = 0.4104	1305 ± 2.8	2.106 ± 0.049
318.15 K, x1 = 0.5115	1341.3 ± 2.9	2.167 ± 0.05
318.15 K, x1 = 0.6124	1379.1 ± 3	2.204 ± 0.051
318.15 K, x1 = 0.7081	1417.5 ± 3	2.217 ± 0.051
318.15 K, x1 = 0.8123	1461.9 ± 3.1	2.216 ± 0.051
318.15 K, x1 = 0.9086	1506.6 ± 3.2	2.216 ± 0.051
